Measurements: PubChem BioAssay (NCI)
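Compound exposure: 48 hours, 5 concentrations, 96-well plates. TGI is the concentration that stops growth completely.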

Columns and labels:
Experiment in all cases: inhibition of tumour cell growth, NCI panel, 48 h
[1] = system: 786-0 renal
[2] = system: A498 renal
[3] = system: A549 NSCLC
[4] = system: ACHN renal
[5] = system: BT-549 breast
[6] = system: CAKI-1 renal
[7] = system: EKVX NSCLC
[8] = system: HCT-116 colon
[9] = system: HCT-15 colon
[10] = system: HL-60(TB) leukemia
[11] = system: HOP-62 NSCLC
[12] = system: HOP-92 NSCLC
[13] = system: HS 578T breast
[14] = system: HT29 colon
[15] = system: IGROV1 ovarian
[16] = system: K-562 leukemia
[17] = system: KM12 colon
[18] = system: LOX IMVI melanoma
[19] = system: M14 melanoma
[20] = system: MALME-3M melanoma
[21] = system: MCF7 breast
[22] = system: MDA-MB-231 breast
[23] = system: MDA-MB-435
[24] = system: MDA-N
[25] = system: NCI-H226 lung
[26] = system: NCI-H23 lung
[27] = system: NCI-H460 lung
[28] = system: NCI-H522 lung
[29] = system: NCI/ADR-RES ovarian
[30] = system: OVCAR-3 ovarian
[31] = system: OVCAR-4 ovarian
[32] = system: OVCAR-5 ovarian
[33] = system: OVCAR-8 ovarian
[34] = system: PC-3 prostate
[35] = system: RPMI-8226 leukemia
[36] = system: RXF 393 renal
[37] = system: SF-268 CNS
[38] = system: SF-295 CNS
[39] = system: SF-539 CNS
[40] = system: SK-MEL-2 melanoma
[41] = system: SK-MEL-28 melanoma
[42] = system: SK-MEL-5 melanoma
[43] = system: SK-OV-3 ovarian
[44] = system: SN12C renal
[45] = system: SNB-75 CNS
[46] = system: SR leukemia
[47] = system: SW-620 colon
[48] = system: T-47D breast
[49] = system: TK-10 renal
[50] = system: U251 CNS
[51] = system: UACC-257 melanoma
[52] = system: UACC-62 melanoma
[53] = system: UO-31 renal
[54] = system: CCRF-CEM leukemia
[55] = system: COLO 205 colon
[56] = system: DU-145 prostate
[57] = system: HCC-2998 colon
[58] = system: MOLT-4 leukemia
[59] = system: SNB-19 CNS

## COC(=O)C(/C(=N/N)C(=O)Nc1cc(Cl)c(Cl)cc1Cl)c1nc2ccc(Cl)cc2[nH]c1=O (stereo not given)
[1]
  TGI: > 100 µM
[2]
  TGI: > 100 µM
[3]
  TGI: > 100 µM
[4]
  TGI: > 100 µM
[5]
  TGI: > 100 µM
[6]
  TGI: > 100 µM
[7]
  TGI: > 100 µM
[8]
  TGI: > 100 µM
[9]
  TGI: > 100 µM
[10]
  TGI: > 100 µM
[11]
  TGI: > 100 µM
[12]
  TGI: > 100 µM
[13]
  TGI: > 100 µM
[14]
  TGI: > 100 µM
[15]
  TGI: > 100 µM
[16]
  TGI: > 100 µM
[17]
  TGI: > 100 µM
[18]
  TGI: > 100 µM
[19]
  TGI: > 100 µM
[20]
  TGI: > 100 µM
[21]
  TGI: > 100 µM
[22]
  TGI: > 100 µM
[23]
  TGI: > 100 µM
[24]
  TGI: > 100 µM
[25]
  TGI: > 100 µM
[26]
  TGI: > 100 µM
[27]
  TGI: > 100 µM
[28]
  TGI: > 100 µM
[29]
  TGI: > 100 µM
[30]
  TGI: > 100 µM
[31]
  TGI: > 100 µM
[32]
  TGI: > 100 µM
[33]
  TGI: > 100 µM
[34]
  TGI: > 100 µM
[35]
  TGI: > 100 µM
[36]
  TGI: > 100 µM
[37]
  TGI: > 100 µM
[38]
  TGI: > 100 µM
[39]
  TGI: > 100 µM
[40]
  TGI: > 100 µM
[41]
  TGI: > 100 µM
[42]
  TGI: > 100 µM
[43]
  TGI: > 100 µM
[44]
  TGI: > 100 µM
[45]
  TGI: > 100 µM
[46]
  TGI: > 100 µM
[47]
  TGI: > 100 µM
[48]
  TGI: > 100 µM
[49]
  TGI: > 100 µM
[50]
  TGI: > 100 µM
[51]
  TGI: > 100 µM
[52]
  TGI: > 100 µM
[53]
  TGI: > 100 µM

## O=C1c2ccccc2C(=O)c2c(NCCNC(=O)C3CCCN3)ccc(NCCNC(=O)C3CCCN3)c21 (stereo not given)
[1]
  TGI: 2.09 µM
[3]
  TGI: > 100 µM
[4]
  TGI: > 100 µM
[5]
  TGI: > 100 µM
[6]
  TGI: > 100 µM
[54]
  TGI: > 100 µM
[55]
  TGI: > 100 µM
[56]
  TGI: > 100 µM
[7]
  TGI: > 100 µM
[57]
  TGI: > 100 µM
[8]
  TGI: 27.5 µM
[9]
  TGI: > 100 µM
[10]
  TGI: > 100 µM
[11]
  TGI: > 100 µM
[12]
  TGI: > 100 µM
[13]
  TGI: > 100 µM
[14]
  TGI: > 100 µM
[15]
  TGI: > 100 µM
[16]
  TGI: 52.2 µM
[17]
  TGI: 49.8 µM
[18]
  TGI: 1.58 µM
[19]
  TGI: > 100 µM
[20]
  TGI: > 100 µM
[21]
  TGI: > 100 µM
[22]
  TGI: > 100 µM
[23]
  TGI: > 100 µM
[24]
  TGI: > 100 µM
[58]
  TGI: 84.2 µM
[25]
  TGI: > 100 µM
[26]
  TGI: > 100 µM
[28]
  TGI: 65.2 µM
[29]
  TGI: > 100 µM
[30]
  TGI: > 100 µM
[31]
  TGI: > 100 µM
[32]
  TGI: > 100 µM
[33]
  TGI: 94.3 µM
[34]
  TGI: > 100 µM
[35]
  TGI: 58.8 µM
[37]
  TGI: > 100 µM
[38]
  TGI: > 100 µM
[39]
  TGI: > 100 µM
[40]
  TGI: > 100 µM
[41]
  TGI: > 100 µM
[42]
  TGI: > 100 µM
[43]
  TGI: > 100 µM
[44]
  TGI: > 100 µM
[59]
  TGI: > 100 µM
[45]
  TGI: > 100 µM
[46]
  TGI: 66.8 µM
[47]
  TGI: > 100 µM
[48]
  TGI: > 100 µM
[49]
  TGI: > 100 µM
[50]
  TGI: > 100 µM
[51]
  TGI: > 100 µM
[52]
  TGI: > 100 µM
[53]
  TGI: > 100 µM

## CN(C)c1ncnc2c1ncn2C1C=CC(COS(N)(=O)=O)C1 (stereo not given)
[1]
  TGI: > 100 µM
[2]
  TGI: > 100 µM
[3]
  TGI: > 100 µM
[4]
  TGI: > 100 µM
[5]
  TGI: > 100 µM
[6]
  TGI: > 100 µM
[54]
  TGI: > 100 µM
[55]
  TGI: > 100 µM
[56]
  TGI: > 100 µM
[7]
  TGI: > 100 µM
[57]
  TGI: > 100 µM
[8]
  TGI: > 100 µM
[9]
  TGI: > 100 µM
[10]
  TGI: > 100 µM
[11]
  TGI: > 100 µM
[12]
  TGI: > 100 µM
[13]
  TGI: > 100 µM
[14]
  TGI: > 100 µM
[15]
  TGI: > 100 µM
[16]
  TGI: > 100 µM
[17]
  TGI: > 100 µM
[18]
  TGI: > 100 µM
[19]
  TGI: > 100 µM
[20]
  TGI: > 100 µM
[21]
  TGI: > 100 µM
[23]
  TGI: > 100 µM
[24]
  TGI: > 100 µM
[58]
  TGI: > 100 µM
[26]
  TGI: > 100 µM
[27]
  TGI: > 100 µM
[28]
  TGI: > 100 µM
[29]
  TGI: > 100 µM
[30]
  TGI: > 100 µM
[31]
  TGI: > 100 µM
[33]
  TGI: > 100 µM
[34]
  TGI: > 100 µM
[35]
  TGI: > 100 µM
[36]
  TGI: > 100 µM
[37]
  TGI: > 100 µM
[38]
  TGI: > 100 µM
[39]
  TGI: > 100 µM
[40]
  TGI: > 100 µM
[41]
  TGI: > 100 µM
[42]
  TGI: > 100 µM
[43]
  TGI: > 100 µM
[44]
  TGI: > 100 µM
[59]
  TGI: > 100 µM
[45]
  TGI: > 100 µM
[46]
  TGI: > 100 µM
[47]
  TGI: > 100 µM
[48]
  TGI: > 100 µM
[50]
  TGI: > 100 µM
[51]
  TGI: > 100 µM
[52]
  TGI: > 100 µM
[53]
  TGI: > 100 µM

## O=c1cc(NCC2CCCCC2)[nH]c(=O)[nH]1
[1]
  TGI: > 100 µM
[2]
  TGI: > 100 µM
[3]
  TGI: > 100 µM
[4]
  TGI: > 100 µM
[5]
  TGI: > 100 µM
[54]
  TGI: > 100 µM
[55]
  TGI: > 100 µM
[56]
  TGI: > 100 µM
[7]
  TGI: > 100 µM
[57]
  TGI: > 100 µM
[8]
  TGI: > 100 µM
[9]
  TGI: > 100 µM
[10]
  TGI: > 100 µM
[11]
  TGI: > 100 µM
[12]
  TGI: > 100 µM
[13]
  TGI: > 100 µM
[15]
  TGI: > 100 µM
[16]
  TGI: > 100 µM
[17]
  TGI: > 100 µM
[18]
  TGI: > 100 µM
[19]
  TGI: > 100 µM
[20]
  TGI: > 100 µM
[21]
  TGI: > 100 µM
[22]
  TGI: > 100 µM
[23]
  TGI: > 100 µM
[24]
  TGI: > 100 µM
[25]
  TGI: > 100 µM
[26]
  TGI: > 100 µM
[27]
  TGI: > 100 µM
[29]
  TGI: > 100 µM
[30]
  TGI: > 100 µM
[31]
  TGI: > 100 µM
[32]
  TGI: > 100 µM
[33]
  TGI: > 100 µM
[34]
  TGI: > 100 µM
[35]
  TGI: > 100 µM
[36]
  TGI: > 100 µM
[37]
  TGI: > 100 µM
[38]
  TGI: > 100 µM
[39]
  TGI: > 100 µM
[41]
  TGI: > 100 µM
[42]
  TGI: > 100 µM
[44]
  TGI: > 100 µM
[59]
  TGI: > 100 µM
[45]
  TGI: > 100 µM
[46]
  TGI: > 100 µM
[47]
  TGI: > 100 µM
[49]
  TGI: > 100 µM
[50]
  TGI: > 100 µM
[51]
  TGI: > 100 µM
[53]
  TGI: > 100 µM
